Data set [1] concerns Escherichia coli. Description: Antibacterial activity against Escherichia coli ATCC 25922 assessed growth inhibition by micro broth dilution method. The class given is functional.
Data set [2] in a line: Thermodynamic solubility of the compound in water. In kind it is physicochemical. Conditions: read-out: Therm_solubility.
Data set [3] has as its system Pseudomonas aeruginosa. Kind of data set: Antibacterial activity against Pseudomonas aeruginosa assessed growth inhibition by micro broth dilution method. The class given is functional.
Data set [4] deals with Staphylococcus aureus. Description: Antibacterial activity against Staphylococcus aureus assessed growth inhibition by micro broth dilution method. In kind it is functional.
Data set [5] relates to Staphylococcus aureus. Kind of data set: Antibacterial activity against methicillin-resistant Staphylococcus aureus assessed growth inhibition by micro broth dilution method. The class given is functional.
Data set [6] concerns Staphylococcus aureus. Kind of data set: Antibacterial activity against Staphylococcus aureus ATCC 29213 assessed growth inhibition by micro broth dilution method. In kind it is functional.
Data set [7] deals with Klebsiella pneumoniae. Kind of data set: Anti-biofilm activity against Klebsiella pneumonia assessed as relative biofilm clearance rate at 8 times of MIC by crystal violet staining based assay. In kind it is functional.
For data set [8], the system named is Pseudomonas aeruginosa. Description: Antibacterial activity against Pseudomonas aeruginosa ATCC 27853 assessed growth inhibition by micro broth dilution method. The class given is functional.
Another data set deals with Enterococcus faecalis. Kind of data set: Antibacterial activity against Enterococcus faecalis assessed growth inhibition by micro broth dilution method. In kind it is functional.
Data set [9] relates to Staphylococcus aureus. Kind of data set: Antibacterial activity against Staphylococcus aureus ATCC 25923 assessed growth inhibition by micro broth dilution method. The class given is functional.
For data set [10], the system named is Escherichia coli. Description: Antibacterial activity against Escherichia coli assessed growth inhibition by micro broth dilution method. In kind it is functional.
Data set [11] concerns Klebsiella pneumoniae. Kind of data set: Antibacterial activity against Klebsiella pneumonia assessed growth inhibition by micro broth dilution method. In kind it is functional.
The test system of a further data set is Acinetobacter baumannii. Description: Antibacterial activity against Acinetobacter baumannii assessed growth inhibition by micro broth dilution method. The class given is functional.
The subject of data set [12] is Staphylococcus aureus. Description: Anti-biofilm activity against Staphylococcus aureus ATCC 29213 assessed as relative biofilm clearance rate at 8 times of MIC by crystal violet staining based assay. In kind it is functional.
Data set [13] deals with Staphylococcus aureus. Description: Bactericidal activity against Staphylococcus aureus ATCC 29213 assessed as time dependent killing at 4 times of MIC measured at 8 hrs. In kind it is functional, organism-based.
For data set [14], the system named is Klebsiella pneumoniae. Kind of data set: Bactericidal activity against Klebsiella pneumonia assessed as time dependent killing at 4 times of MIC measured at 8 hrs. In kind it is functional, organism-based.
The subject of data set [15] is Staphylococcus aureus. Description: Anti-biofilm activity against Staphylococcus aureus ATCC 29213 assessed as relative biofilm clearance rate by crystal violet staining based assay. The class given is functional, organism-based.
Data set [16] has as its system Klebsiella pneumoniae. Description: Induction of ROS generation in Klebsiella pneumonia assessed as loss of GSH activity by Ellmans method. In kind it is functional, organism-based.
In data set [17] the test system is Cell membrane. Kind of data set: Induction of inner membrane permeability in Staphylococcus aureus ATCC 29213 assessed as increase in fluorescence intensity by propidium iodide uptake based microscopic imaging assay. The class given is cell membranes.
Data set [18] has as its system Klebsiella pneumoniae. Description: Antibacterial activity against Klebsiella pneumonia assessed as decrease in relative metabolic activity at 4 times of MIC by Alamar Blue assays. In kind it is functional, organism-based.
In data set [19] the test system is Cell membrane. Kind of data set: Induction of inner membrane permeability in Klebsiella pneumonia assessed as increase in fluorescence intensity by propidium iodide uptake based microscopic imaging assay. In kind it is cell membranes. Conditions: Klebsiella pneumoniae.
In data set [20] the test system is Calf thymus DNA. Description: Induction of calf thymus DNA double helix loss assessed as reduction in fluorescence intensity at 525 nm wavelength by acridine orange competition based assay. In kind it is nucleic-acid assay. Conditions: Bos taurus.
Data set [21] has as its system Klebsiella pneumoniae. Description: Induction of resistance development in Klebsiella pneumonia assessed as after 20 passages measured upto 4.5 times of MIC. In kind it is functional.
The test system of data set [22] is Cell membrane. Description: Induction of disruption of membrane integrity in Klebsiella pneumonia assessed as leakage of intracellular proteins by Acid Blue 90 based assay. Conditions: Klebsiella pneumoniae. The class given is cell membranes.
For data set [23], the system named is Staphylococcus aureus. Kind of data set: Induction of resistance development in Staphylococcus aureus ATCC 29213 assessed as after 20 passages measured upto 4.5 times of MIC. In kind it is functional.
Data set [24] has as its system Klebsiella pneumoniae. Kind of data set: Anti-biofilm activity against Klebsiella pneumonia assessed as relative biofilm clearance rate by crystal violet staining based assay. In kind it is functional, organism-based.
Data set [25] deals with Cell membrane. Kind of data set: Induction of outer membrane permeability in Klebsiella pneumonia assessed as increase in fluorescence intensity at 2 times of MIC by N-phenyl naphthylamine (NPN) dye based assay. In kind it is cell membranes. As to conditions: Klebsiella pneumoniae.
The subject of data set [26] is Cell membrane. Description: Induction of cytoplasmic membrane depolarization in Klebsiella pneumonia assessed as increase in fluorescence intensity at 2 times of MIC measured upto 40 mins by DiSC35 dye based fluorescence method. The class given is cell membranes. Conditions: Klebsiella pneumoniae, DISRUPTING AGENT.
Data set [27] has as its system Cell membrane. Description: Induction of cytoplasmic membrane depolarization in Staphylococcus aureus ATCC 29213 assessed as increase in fluorescence intensity at 2 times of MIC measured upto 40 mins by DiSC35 dye based fluorescence method. In kind it is cell membranes.
For data set [28], the system named is Staphylococcus aureus. Description: Induction of ROS generation in Staphylococcus aureus ATCC 29213 assessed as loss of GSH activity by Ellmans method. In kind it is functional, organism-based.
In data set [29] the test system is Staphylococcus aureus. Kind of data set: Induction of ROS generation in Staphylococcus aureus ATCC 29213 assessed as increase in fluorescence intensity by DCFH-DA based microscopic analysis. In kind it is functional, organism-based.
Data set [30] deals with Cell membrane. Description: Induction of disruption of membrane integrity in Staphylococcus aureus ATCC 29213 assessed as leakage of intracellular proteins by Acid Blue 90 based assay. In kind it is cell membranes.
In data set [31] the test system is Klebsiella pneumoniae. Kind of data set: Induction of ROS generation in Klebsiella pneumonia assessed as increase in fluorescence intensity by DCFH-DA based microscopic analysis. In kind it is functional, organism-based.
Data set [32] deals with Calf thymus DNA. Kind of data set: Binding affinity to calf thymus DNA assessed as change in absorption measuring hyperchromism by UV-Vis absorption spectra analysis. In kind it is nucleic-acid assay. Conditions: Bos taurus.
Data set [33] has as its system Staphylococcus aureus. Kind of data set: Antibacterial activity against Staphylococcus aureus ATCC 29213 assessed as decrease in relative metabolic activity at 4 times of MIC by Alamar Blue assays. In kind it is functional, organism-based.

Values after ≈ are worked out from the molar mass of the structure shown. Active and inactive are the calls of the source. The rule behind the calls is not given here.

Consider `CCOC(=O)c1cn(Cc2ccc(Cl)c(Cl)c2)c2cc([C-](C#N)C(=O)OCC)c(F)cc2c1=O.[Na+]` (configuration not stated), for which the MIC against Escherichia coli [1] came to 0.25 µg/mL; in the data set with Pseudomonas aeruginosa [3], 4 µg/mL; in the data set on Staphylococcus aureus [4], 64 µg/mL; against Staphylococcus aureus [5] it was 8 µg/mL; against Staphylococcus aureus [6], 0.25 µg/mL; with Pseudomonas aeruginosa [8], 0.5 µg/mL. Also, the minimal inhibitory concentration (MIC) in the data set on Enterococcus faecalis stood at 1 µg/mL; against Staphylococcus aureus [9], 0.25 µg/mL; in the data set on Escherichia coli [10], 0.25 µg/mL; against Klebsiella pneumoniae [11], 0.25 µg/mL; in the data set with Acinetobacter baumannii, 1 µg/mL. In addition, the solubility thermodynamic in data set [2] is 97.3 µg/mL. Moreover, the Activity in the data set on Klebsiella pneumoniae [7] and in the data set on Staphylococcus aureus [12] was 70% in each case.

As to `CCOC(=O)c1cn(Cc2ccc(Cl)c(Cl)c2)c2cc(C(C#N)C(=O)OCC)c(F)cc2c1=O` (configuration not stated), the outcome in the data set on Staphylococcus aureus [13], in the data set on Klebsiella pneumoniae [14], in the data set with Klebsiella pneumoniae [18], in the data set on Calf thymus DNA [20], in the data set on Klebsiella pneumoniae [21] and with Staphylococcus aureus [23] was Active. The result with Cell membrane [26], in the data set on Cell membrane [27], with Calf thymus DNA [32] and in the data set on Staphylococcus aureus [33] was Active. Besides, the Activity result with Staphylococcus aureus [15], in the data set on Klebsiella pneumoniae [16], in the data set on Cell membrane [17], in the data set with Cell membrane [19], in the data set on Cell membrane [22] and in the data set on Klebsiella pneumoniae [24] was “Dose-Dependent Effect” each time. Further, the Activity result in the data set on Cell membrane [25], with Staphylococcus aureus [28], in the data set on Staphylococcus aureus [29], with Cell membrane [30] and with Klebsiella pneumoniae [31] was “Dose-Dependent Effect” throughout.

For the molecule `CCOC(=O)C(C#N)c1cc2c(cc1F)c(=O)c(C(=O)O)cn2Cc1ccc(F)cc1F` (configuration not stated), the minimal inhibitory concentration (MIC) against Escherichia coli [1] worked out at 0.5 µg/mL (≈ 1.13 µM); in the data set with Pseudomonas aeruginosa [3] it was 16 µg/mL (≈ 36 µM); against Staphylococcus aureus [4], 4 µg/mL (≈ 9 µM); with Staphylococcus aureus [5], 8 µg/mL (≈ 18 µM); in the data set with Staphylococcus aureus [6], 4 µg/mL (≈ 9 µM); with Pseudomonas aeruginosa [8] it was 2 µg/mL (≈ 4.5 µM). Moreover, the MIC is 8 µg/mL (≈ 18 µM) in the data set with Enterococcus faecalis; 1 µg/mL (≈ 2.25 µM) with Staphylococcus aureus [9]; 16 µg/mL (≈ 36 µM) in the data set on Escherichia coli [10]; 0.5 µg/mL (≈ 1.13 µM) against Klebsiella pneumoniae [11]; 2 µg/mL (≈ 4.5 µM) in the data set with Acinetobacter baumannii.

Turning to `CCOC(=O)c1cn(Cc2ccccn2)c2cc([C-](C#N)C(=O)OCC)c(F)cc2c1=O.[Na+]` (configuration not stated), the MIC worked out at 128 µg/mL against Escherichia coli [1]; 128 µg/mL in the data set on Pseudomonas aeruginosa [3]; 256 µg/mL against Staphylococcus aureus [4]; 256 µg/mL with Staphylococcus aureus [5]; 256 µg/mL in the data set with Staphylococcus aureus [6]; 128 µg/mL in the data set with Pseudomonas aeruginosa [8]. Also, the MIC against Enterococcus faecalis, in the data set with Staphylococcus aureus [9], with Escherichia coli [10], with Klebsiella pneumoniae [11] and in the data set with Acinetobacter baumannii was 256 µg/mL in each case.

(Values after ChEMBL document CHEMBL5528028, “Discovery of benzopyridone cyanoacetates as new type of potential broad-spectrum antibacterial candidates” (Eur J Med Chem, 2024).)
